From PubChem BioAssay (NCI)
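Dose response: 5 concentrations. Exposure: 48 h. Format: 96-well plates. Endpoint: linear interpolation; highest concentration if not reached. The concentration for full growth arrest is given as TGI.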

What was measured:
Assay in all cases: NCI tumour cell line growth inhibition, 48 h
[1] = tested on: SNB-19 CNS
[2] = tested on: SK-MEL-2 melanoma
[3] = tested on: KM12 colon
[4] = tested on: K-562 leukemia
[5] = tested on: EKVX NSCLC
[6] = tested on: SF-268 CNS
[7] = tested on: 786-0 renal
[8] = tested on: NCI-H23 lung
[9] = tested on: SK-OV-3 ovarian
[10] = tested on: SW-620 colon
[11] = tested on: RXF 393 renal
[12] = tested on: RPMI-8226 leukemia
[13] = tested on: TK-10 renal
[14] = tested on: HCT-15 colon
[15] = tested on: COLO 205 colon
[16] = tested on: U251 CNS
[17] = tested on: HOP-92 NSCLC
[18] = tested on: NCI-H226 lung
[19] = tested on: OVCAR-4 ovarian
[20] = tested on: UACC-62 melanoma
[21] = tested on: DMS 273 small cell lung
[22] = tested on: DLD-1 colon
[23] = tested on: HCC-2998 colon
[24] = tested on: SF-539 CNS
[25] = tested on: RXF-631 renal
[26] = tested on: A498 renal
[27] = tested on: CCRF-CEM leukemia
[28] = tested on: HL-60(TB) leukemia
[29] = tested on: NCI-H522 lung
[30] = tested on: UO-31 renal
[31] = tested on: HT29 colon
[32] = tested on: HCT-116 colon
[33] = tested on: LXFL 529 NSCLC
[34] = tested on: SK-MEL-5 melanoma
[35] = tested on: HOP-62 NSCLC
[36] = tested on: ACHN renal
[37] = tested on: KM20L2 colon
[38] = tested on: SF-295 CNS
[39] = tested on: M14 melanoma
[40] = tested on: UACC-257 melanoma
[41] = tested on: A549 NSCLC
[42] = tested on: OVCAR-8 ovarian
[43] = tested on: SN12C renal
[44] = tested on: LOX IMVI melanoma
[45] = tested on: SNB-75 CNS
[46] = tested on: CAKI-1 renal
[47] = tested on: OVCAR-3 ovarian
[48] = tested on: XF 498 CNS
[49] = tested on: IGROV1 ovarian
[50] = tested on: OVCAR-5 ovarian
[51] = tested on: NCI-H460 lung
[52] = tested on: SNB-78 CNS
[53] = tested on: MALME-3M melanoma
[54] = tested on: DMS 114 small cell lung
[55] = tested on: M19-MEL melanoma
[56] = tested on: SR leukemia
[57] = tested on: MOLT-4 leukemia
[58] = tested on: SK-MEL-28 melanoma
[59] = tested on: HOP-18 NSCLC

Measured: TGI

CC1=C(C(=O)CC(=O)C(=O)Nc2ccccc2C(F)(F)F)Sc2ccccc2N1
80.1 µM: [45]
66.2 µM: [11]
85.6 µM: [8]
71.4 µM: [6]
83.5 µM: [17]
68.4 µM: [29]
96.8 µM: [35]
87.8 µM: [18]
61.7 µM: [30]
not listed: [55] | [56] | [57] | [58] | [59]
> 100 µM: all other assays above

COc1ccc(/C(=N\N=C(N)N)C(c2ccc(OC)cc2)C2OC(=O)c3ccccc32)cc1 (stereo not drawn)
not listed: [2] | [5] | [13] | [26] | [59]
> 100 µM: all other assays above

COc1cccc(C2C(C(=O)O)=C(CO)Oc3cc4c(cc32)OCO4)c1OC (stereo not drawn)
94.7 µM: [48]
not listed: [3] | [7] | [11] | [19] | [21] | [23] | [31] | [32] | [35] | [40] | [41] | [50] | [54] | [56]
> 100 µM: all other assays above

COc1cc(/C=N/c2nncs2)ccc1O
not listed: [15] | [22] | [29] | [44] | [47]
> 100 µM: all other assays above

CC(C)=CC1CCc2ccccc2N1S(=O)(=O)c1ccc(C)cc1 (stereo not drawn)
> 25.1 µM: [45]
85.8 µM: [6]
12.1 µM: [7]
7.95 µM: [23]
5.07 µM: [12]
3.24 µM: [31]
> 47.2 µM: [33]
6.16 µM: [3]
10.3 µM: [57]
5.77 µM: [29]
> 40.1 µM: [58]
3.14 µM: [24]
4.25 µM: [47]
51.5 µM: [53]
4.12 µM: [54]
> 31.3 µM: [42]
18.9 µM: [41]
16.1 µM: [20]
5.12 µM: [34]
14 µM: [35]
7.38 µM: [39]
26.8 µM: [48]
1.59 µM: [21]
8.02 µM: [51]
3.12 µM: [37]
> 21.4 µM: [38]
13.7 µM: [55]
6.98 µM: [26]
5.4 µM: [15]
6.69 µM: [32]
4.58 µM: [16]
12.6 µM: [44]
6.05 µM: [18]
5.14 µM: [11]
7.61 µM: [17]
23.6 µM: [40]
> 31.6 µM: [13] | [14] | [19] | [36] | [50]
5.7 µM: [8]
7.12 µM: [2]
not listed: [28] | [46] | [56]
> 100 µM: all other assays above
